Experimental data: patent US12728186B2, “Methods and kits for preparing pathogen-inactivated whole blood” (priority 2018, dated 2026)
Values joined by “and” are separate entries in the source; they are usually repeats but may differ in a detail not shown here. Equal entries are not always repeated.

How the values were obtained:
[1] = Residual unreacted amustaline by LCMS, Example 3 (1-container vs 3-container kits, PVC1/PVC2/EVA bags); format: physicochemical
Procedure: In another study, pathogen-inactivated whole blood was prepared using amustaline and GSH, in 1-container or 3-container kits of the present disclosure, with the 3-container kits comprising second and third bags (e.g., transfer/storage containers) from three different sources (e.g., different plastics materials). The three different transfer/storage containers included a 600 mL container, comprising Transfufol 3226 PVC film (“PVC1”), a second 600 mL container from a different manufacturer comprising Transfufol 3226 PVC film (“PVC2”), and a 750 mL container from Cerus, comprising EVA (ethylene-vinyl acetate) 1800 film (“EVA”). Six ABO-matched whole blood units in anticoagulant were pooled and split into seven units of ~450 mL each. The seven whole blood units were subjected to pathogen inactivation under conditions of no transfer step between containers (e.g., processing performed in the 1-container kit), or two transfer steps between containers (e.g., processing performed in the 3-container kits) of the indicated storage/transfer bag source (Table 4). Amustaline and GSH were added to the whole blood units as described previously by sterile docking of a filter set to the tubing of an input port of the first containers, which contained the whole blood. Unit 1 was treated with amustaline and GSH at 0.2 mM and 2.0 mM final concentrations, respectively, in the first container and incubated at 22° C., with samples taken at 18, 20, 22 and 24 hours, with no container transfers. For units 2-7, amustaline and GSH were added to the whole blood (0.2 mM and 2.0 mM final concentrations, respectively) in the first container, followed by transfer to the second container and incubation at 22° C. for 18 hours. At 18 hours, samples were taken along with transfer of the mixture to the third container and further incubation at 22° C., with additional sampling at 2 hour intervals (20, 22 and 24 hr).
All samples were analyzed by LCMS to determine the level of residual, unreacted amustaline as previously described. […] Following a second transfer (i.e., to third container) at 18 hr and further incubation at 22° C., residual amustaline was less than 1 nM at the 20 hr time point (i.e., 2 hours after bag transfer) for kits with two different container types and approaching 1 nM for kits with the third container type.

[2] = Residual unreacted amustaline by LCMS, Example 1 (treatment container; samples moved to separate containers); format: physicochemical; details: for Residual amustaline levels in pathogen-inactivated whole blood, 21 hr / Residual amustaline levels in pathogen-inactivated whole blood, 24 hr / Residual amustaline levels in pathogen-inactivated whole blood, 27 hr / Residual amustaline levels in pathogen-inactivated whole blood, 30 hr / Residual amustaline levels in pathogen-inactivated whole blood, 33 hr / Residual amustaline levels in pathogen-inactivated whole blood, 36 hr / Residual amustaline levels in pathogen-inactivated whole blood, 42 hr: no transfer, 0.2 mM amustaline, 2.0 mM GSH
Procedure: Pathogen inactivated whole blood was prepared with the pathogen inactivation compound, amustaline, and the quencher glutathione (Henschler et al., 2011, Transfus Med Hemother 38:33-42), in a kit of the present disclosure comprising a treatment container and tubing with a 3-way branch for introducing the amustaline/GSH (e.g., a “filter set”) comprising two in line filters for coupling (e.g., connecting) containers (e.g., syringes) of PIC and quencher, and the third branch coupled to (e.g., connected to) a sample diversion pouch (e.g., FIG. 3b). More specifically, four ABO-matched whole blood units containing anticoagulant were pooled and split into 8 half units (225 mL/half unit), added into each of eight treatment bags by connecting the pooled donor blood bag containing the whole blood to the treatment container by way of the tubing and using a tubing welder. Following transfer of the whole blood into the treatment containers, the pooled donor blood bag was removed by sealing and severing the tubing, and the filter set was sterile coupled using a tubing welder to the same input port of the treatment container via the remaining tubing. Amustaline and GSH were added to final concentrations of 0.2 mM and 2.0 mM, respectively. GSH was added first, followed by addition of amustaline, either within 5 minutes of GSH addition or after at least 15 minutes hold time, as indicated in Table 1. The mixtures were incubated at 22° C. (Units 1-4) or 25° C. (Units 5-8), with samples removed at the indicated times for analysis by liquid chromatography-mass spectrometry (LCMS) to determine the level of residual, unreacted amustaline.
Additionally, 50 mL of the mixture was removed from each of Units 2 and 8 at 24 hr and divided into two 25 mL samples in separate containers to compare storage at 4° C. versus room temperature, and for evaluation of residual amustaline levels at 2, 4, 6 and 8 hours of storage under those conditions (Table 2).

[3] = Units 1-2, amustaline added >15 min after GSH, 22° C. in treatment container
[4] = Units 3-4, amustaline added <5 min after GSH, 22° C. in treatment container
[5] = Units 5-6, amustaline added >15 min after GSH, 25° C. in treatment container
[6] = Units 7-8, amustaline added <5 min after GSH, 25° C. in treatment container

O=C(CCNc1c2ccccc2nc2ccccc12)OCCN(CCCl)CCCl [amustaline]
Residual amustaline levels in pathogen-inactivated whole blood, 18 hr ([1]; 18 hr (at transfer to third container), Units 2-3, 3 bag kit, 2x transfer, PVC1 transfer bags, 22° C.): 1.75 nM and 1.52 nM | Residual amustaline levels in pathogen-inactivated whole blood, 18 hr ([1]; 18 hr (at transfer to third container), Units 4-5, 3 bag kit, 2x transfer, PVC2 transfer bags, 22° C.): 1.45 nM and 1.48 nM | Residual amustaline levels in pathogen-inactivated whole blood, 18 hr ([1]; 18 hr (at transfer to third container), Units 6-7, 3 bag kit, 2x transfer, EVA transfer bags, 22° C.): 3.11 nM and 3.51 nM | Residual amustaline levels in pathogen-inactivated whole blood, 18 hr ([1]; 18 hr, Unit 1, 1 bag kit, no transfer, 22° C.): 2.16 nM | residual amustaline at the 20 hr time point, kits with the third container type ([1]; 20 hr (2 hours after bag transfer at 18 hr), 3-container kits, third container type, 22° C.): ~1 nM | residual amustaline at the 20 hr time point, kits with two container types ([1]; 20 hr (2 hours after bag transfer at 18 hr), 3-container kits, two different container types, 22° C.): less than 1 nM | Residual amustaline levels in pathogen-inactivated whole blood, 20 hr ([1]; 20 hr (third container from 18 hr), Units 2-3, 3 bag kit, 2x transfer, PVC1 transfer bags, 22° C.): 0.88 nM and 0.78 nM | Residual amustaline levels in pathogen-inactivated whole blood, 20 hr ([1]; 20 hr (third container from 18 hr), Units 4-5, 3 bag kit, 2x transfer, PVC2 transfer bags, 22° C.): 0.85 nM and 0.87 nM | Residual amustaline levels in pathogen-inactivated whole blood, 20 hr ([1]; 20 hr (third container from 18 hr), Units 6-7, 3 bag kit, 2x transfer, EVA transfer bags, 22° C.): 1.14 nM and 1.22 nM | Residual amustaline levels in pathogen-inactivated whole blood, 20 hr ([1]; 20 hr, Unit 1, 1 bag kit, no transfer, 22° C.): 1.99 nM | Residual amustaline levels in pathogen-inactivated whole blood, 22 hr ([1]; 22 hr (third container from 18 hr), Units 2-3, 3 bag kit, 2x transfer, PVC1 transfer bags, 22° C.): BLOQ (BLOQ = Below Limit of Quantitation (e.g., <0.75 nM)) | Residual amustaline levels in pathogen-inactivated whole blood, 22 hr ([1]; 22 hr (third container from 18 hr), Units 4-5, 3 bag kit, 2x transfer, PVC2 transfer bags, 22° C.): BLOQ (BLOQ = Below Limit of Quantitation (e.g., <0.75 nM)) | Residual amustaline levels in pathogen-inactivated whole blood, 22 hr ([1]; 22 hr (third container from 18 hr), Units 6-7, 3 bag kit, 2x transfer, EVA transfer bags, 22° C.): BLOQ (BLOQ = Below Limit of Quantitation (e.g., <0.75 nM)) | level of residual amustaline at 22 hr and 24 hr, 3-container kits ([1]; 22 hr and 24 hr (4 or 6 hours after bag transfer), all samples in 3-container kits, three container types): below the limit of quantitation | Residual amustaline levels in pathogen-inactivated whole blood, 22 hr ([1]; 22 hr, Unit 1, 1 bag kit, no transfer, 22° C.): 1.46 nM | Residual amustaline levels in pathogen-inactivated whole blood, 24 hr ([1]; 24 hr (third container from 18 hr), Units 2-3, 3 bag kit, 2x transfer, PVC1 transfer bags, 22° C.): BLOQ (BLOQ = Below Limit of Quantitation (e.g., <0.75 nM)) | Residual amustaline levels in pathogen-inactivated whole blood, 24 hr ([1]; 24 hr (third container from 18 hr), Units 4-5, 3 bag kit, 2x transfer, PVC2 transfer bags, 22° C.): BLOQ (BLOQ = Below Limit of Quantitation (e.g., <0.75 nM)) | Residual amustaline levels in pathogen-inactivated whole blood, 24 hr ([1]; 24 hr (third container from 18 hr), Units 6-7, 3 bag kit, 2x transfer, EVA transfer bags, 22° C.): BLOQ (BLOQ = Below Limit of Quantitation (e.g., <0.75 nM)) | Residual amustaline levels in pathogen-inactivated whole blood, 24 hr ([1]; 24 hr, Unit 1, 1 bag kit, no transfer, 22° C.): 1.54 nM | Residual amustaline levels in pathogen-inactivated whole blood, 21 hr [2, 3]: 3.50 nM and 4.09 nM | Residual amustaline levels in pathogen-inactivated whole blood, 21 hr [2, 4]: 3.45 nM and 3.85 nM | Residual amustaline levels in pathogen-inactivated whole blood, 21 hr [2, 5]: 2.91 nM and 3.21 nM | Residual amustaline levels in pathogen-inactivated whole blood, 21 hr [2, 6]: 3.43 nM and 4.15 nM | Residual amustaline levels in pathogen-inactivated whole blood, 24 hr [2, 3]: 2.62 nM and 2.66 nM | Residual amustaline levels in pathogen-inactivated whole blood, 24 hr [2, 4]: 3.04 nM and 3.53 nM | Residual amustaline levels in pathogen-inactivated whole blood, 24 hr [2, 5]: 2.44 nM and 2.58 nM | Residual amustaline levels in pathogen-inactivated whole blood, 24 hr [2, 6]: 2.86 nM and 3.39 nM | Residual amustaline levels in pathogen-inactivated whole blood, 27 hr [2, 3]: 2.27 nM and 3.07 nM | Residual amustaline levels in pathogen-inactivated whole blood, 27 hr [2, 4]: 3.29 nM and 3.7 nM | Residual amustaline levels in pathogen-inactivated whole blood, 27 hr [2, 5]: 2.55 nM and 2.71 nM | Residual amustaline levels in pathogen-inactivated whole blood, 27 hr [2, 6]: 2.74 nM and 3.30 nM | Residual amustaline levels in pathogen-inactivated whole blood, 30 hr [2, 3]: 2.11 nM and 2.95 nM | Residual amustaline levels in pathogen-inactivated whole blood, 30 hr [2, 4]: 2.67 nM and 2.84 nM | Residual amustaline levels in pathogen-inactivated whole blood, 30 hr [2, 5]: 2.04 nM and 2.49 nM | Residual amustaline levels in pathogen-inactivated whole blood, 30 hr [2, 6]: 2.34 nM and 2.59 nM | Residual amustaline levels in pathogen-inactivated whole blood, 33 hr [2, 3]: 2.61 nM and 2.29 nM | Residual amustaline levels in pathogen-inactivated whole blood, 33 hr [2, 4]: 2.16 nM and 2.22 nM | Residual amustaline levels in pathogen-inactivated whole blood, 33 hr [2, 5]: 1.76 nM and 1.47 nM | Residual amustaline levels in pathogen-inactivated whole blood, 33 hr [2, 6]: 1.64 nM and 2.83 nM | Residual amustaline levels in pathogen-inactivated whole blood, 36 hr [2, 3]: 1.62 nM and 1.38 nM | Residual amustaline levels in pathogen-inactivated whole blood, 36 hr [2, 4]: 1.73 nM and 1.41 nM | Residual amustaline levels in pathogen-inactivated whole blood, 36 hr [2, 5]: 1.89 nM and 1.87 nM | Residual amustaline levels in pathogen-inactivated whole blood, 36 hr [2, 6]: 2.28 nM and 1.97 nM | Residual amustaline levels in pathogen-inactivated whole blood, 42 hr [2, 3]: 1.30 nM and 1.35 nM | Residual amustaline levels in pathogen-inactivated whole blood, 42 hr [2, 4]: 1.66 nM and 1.57 nM | Residual amustaline levels in pathogen-inactivated whole blood, 42 hr [2, 5]: 1.62 nM and 1.22 nM | Residual amustaline levels in pathogen-inactivated whole blood, 2 hr ([2]; Units 2 and 8, 25 mL sample removed at 24 hr into separate container, stored at RT, 2 hr of storage): BLOQ (BLOQ = Below Limit of Quantitation (e.g., < 0.75 nM)) | Residual amustaline levels in pathogen-inactivated whole blood, 4 hr ([2]; Units 2 and 8, 25 mL sample removed at 24 hr into separate container, stored at RT, 4 hr of storage): BLOQ (BLOQ = Below Limit of Quantitation (e.g., < 0.75 nM)) | Residual amustaline levels in pathogen-inactivated whole blood, 6 hr ([2]; Units 2 and 8, 25 mL sample removed at 24 hr into separate container, stored at RT, 6 hr of storage): BLOQ (BLOQ = Below Limit of Quantitation (e.g., < 0.75 nM)) | residual amustaline after transfer to a different container and storage at room temperature ([2]; treatment mixtures from Units 2 and 8, transfer to a different container, further storage at room temperature): below the limit of quantitation
